Each block holds one compound with its values, some of them ahead of it.
Legend:
[1] = tested on: CHP-134 neuroblastoma cells; experiment: Cell viability assay (Guava ViaCount, flow cytometry); type: cell-based, human; conditions: for EC50: Homo sapiens, 24 hrs incubation, read-out: concentration for half-maximal decrease in viability; for EC50 / induction of apoptosis: CHP-134 cells
Description: (§1) Human melanoma SK-MEL 28, neuroblastoma CHP-134, and T-cell leukemia Jurkat cell lines were obtained from ATCC (Manassas, Va.). All cell lines were grown in RPMI 1640 media (UCSF Cell Culture Facility, San Francisco, Calif.), supplemented with 10% heat-inactivated fetal bovine serum (Gemini Bio-Products, West Sacramento, Calif.), non-essential amino acids, 100 units/ml penicillin/streptomycin, 110 μg/ml sodium pyruvate, and 2 mM glutamine (UCSF Cell Culture Facility). Jurkat cells were grown to a concentration of not more than 10^6 cells/ml and adherent SK-MEL 28 and CHP-134 cells to a concentration of not more than 5×10^4 cells/cm^2.
(§2) The effect of inhibitors of PSA de-N-acetylase on the viability of human tumor cell lines in culture was measured using a cell viability assay. Cells were incubated with N-acyl or methanesulfonyl hexosamine derivatives for 24 hours. Jurkat cells were incubated at a concentration of 2×10^5 cells/ml in round-bottom 96-well plates (Falcon), 200 μl/well. Adherent cells were incubated at a concentration of 1×10^5 cells/ml in flat-bottom 96-well plates (Nunc). Plates were then spun at 1,000×g for 5 minutes. SK-MEL 28 cells were release from the plate using a trypsin/EDTA solution (UCSF Cell Culture Facility). CHP-134 cells were released using CDR (Guava Technologies). All cells were resuspended in Guava ViaCount reagent and read on a Guava EasyCyte flow cytometer, using the Guava ViaCount assay (all from Guava Technologies).

[2] = tested on: Jurkat T-cell leukemia cells; experiment: as above; type: cell-based, human; conditions: for EC50: Homo sapiens, read-out: concentration for half-maximal decrease in viability; for EC50 / viability of Jurkat cells: 24 hrs incubation; for viability of Jurkat cells: concentration in cell culture media varied (FIG. 3, 4, 9); for apoptosis and cell death in Jurkat cells / cell viability of Jurkat cells: 24 hrs, concentration of 10 mM (FIG. 7)
Description: as §1, §2

SK-MEL 28 melanoma cells [3] = experiment: as above; type: cell-based, human
Description: as §1, §2

[4] = tested on: CHP-134 neuroblastoma cells; experiment: Cell surface expression of N-propionyl PSA (SEAM 18 binding, flow cytometry); type: cell-based, human; conditions: CHP-134, 10 mM supplement in media, 24 hours (FIG. 2)
Description: (§3) CHP-134, SK-MEL 28 and Jurkat cells were cultured in media containing N-propionyl galactosamine, N-propionyl mannosamine, or N-acetyl mannosamine (10 mM) or no supplement for 24 hours. To measure mAb binding, the cells were released from the plate, pelleted by centrifugation, washed with PBS, and fixed with 1% formaldehyde in PBS. All procedures were performed on ice. Cells were blocked with PBS containing 3% goat serum, then were incubated overnight at 4° C. with one of the following primary antibodies (˜1 μg/ml), diluted in 3% goat serum: irrelevant isotype control mAbs IgG2a or IgG2b (Southern Biotech), SEAM 3 (Granoff et al. J. Immunol. 1998, 160:5028), or SEAM 18 (Granoff et al. J. Immunol. 1998, 160:5028). Cells were then washed and labeled with goat-anti-mouse FITC (1:1000, Jackson Immunoresearch, West Grove, Pa.). Fluorescence was measured on a Guava EasyCyte flow cytometer, using the Guava ExpressPlus assay (Guava Technologies) and the results are expressed as the percent of cells that are positive for mAb binding.

[5] = tested on: Jurkat T-cell leukemia cells; experiment: as above; type: cell-based, human; conditions: 10 mM supplement in media, 24 hours (FIG. 2)
Description: as §3

SK-MEL 28 melanoma cells [6] = experiment: as above; type: cell-based, human; conditions: SK-MEL 28, 10 mM supplement in media, 24 hours (FIG. 2)
Description: as §3

[7] = target: T1, membrane transporters for N-acetyl neuraminic acid (Homo sapiens, UniProt Q9NRA2); conditions: lysosomal membrane transporter; Essentials of Glycobiology 1999; read-out: Michaelis constant, Km, for forming a substrate/transporter complex; cited from earlier work
T1 sequence (Q9NRA2 1-495): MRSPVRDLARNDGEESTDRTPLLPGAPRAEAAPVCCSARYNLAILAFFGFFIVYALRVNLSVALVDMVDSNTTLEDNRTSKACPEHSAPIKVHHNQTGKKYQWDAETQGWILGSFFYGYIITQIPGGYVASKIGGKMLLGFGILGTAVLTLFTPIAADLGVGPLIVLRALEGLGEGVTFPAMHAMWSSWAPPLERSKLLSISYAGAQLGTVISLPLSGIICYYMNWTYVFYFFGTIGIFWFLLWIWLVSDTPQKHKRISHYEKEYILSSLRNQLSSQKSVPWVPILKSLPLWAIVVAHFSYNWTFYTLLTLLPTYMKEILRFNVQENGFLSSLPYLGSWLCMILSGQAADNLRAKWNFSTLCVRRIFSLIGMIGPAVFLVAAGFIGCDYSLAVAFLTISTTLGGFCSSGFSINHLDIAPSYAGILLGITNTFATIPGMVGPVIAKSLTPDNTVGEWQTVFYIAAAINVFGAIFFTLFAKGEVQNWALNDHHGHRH

[8] = tested on: Jurkat T-cell leukemia cells; experiment: Cell viability assay (Guava ViaCount, flow cytometry); type: cell-based, human; conditions: 96 hrs incubation, increasing concentrations (FIG. 8)
[9] = 24 hours, concentration-dependent (FIG. 4)
[10] = 96 hrs incubation, increasing concentrations (FIG. 8)

EC50 [1]: 3000 µM
EC50 ([2]; Jurkat cells): 3000 µM
Compound: C=CC(=O)N[C@H]1C(O)O[C@H](CO)[C@H](O)[C@@H]1O (some centres unmarked) [GalNAcryl, N-Acryl Galactosamine]

Compound: C=CC(=O)N[C@@H]1C(O)O[C@H](CO)[C@@H](O)[C@@H]1O (some centres unmarked) [N-acryl mannosamine, N-Acryl Mannosamine]
cell viability of CHP-134 cells [1, 9]: reducing the cell viability
apoptosis and cell death of Jurkat cells ([2]; 24 hours, four concentrations (FIG. 3)): inducing apoptosis and cell death
viability of Jurkat cells [2]: reduces the viability
sensitivity of Jurkat cells to killing relative to the other cell lines ([2]; Jurkat vs CHP-134 and SK-MEL 28 (FIG. 4)): approximately 10 fold
cell viability of SK-MEL 28 cells (SK-MEL 28 melanoma cells [3]; [9]): reducing the cell viability

Compound: CCC(=O)N[C@H]1C(O)O[C@H](CO)[C@H](O)[C@@H]1O (some centres unmarked) [N-propionyl galactosamine]
percentage of cells positive for SEAM 18 binding [4]: increases
percentage of cells positive for SEAM 18 binding [5]: increases
percentage of cells positive for SEAM 18 binding (SK-MEL 28 melanoma cells [6]): increases

Compound: CC(=O)N[C@H]1[C@H]([C@H](O)[C@H](O)CO)OC(O)(C(=O)O)C[C@@H]1O (some centres unmarked) [N-acetyl neuraminic acid]
Km [7]: ~500 µM

EC50 [1]: ~1000 µM
EC50 ([2]; Jurkat cells): ~1000 µM
EC50 (SK-MEL 28 melanoma cells [3]; Homo sapiens, SK-MEL 28 cells, 24 hrs incubation, read-out: concentration for half-maximal decrease in viability): ~8000 µM
Compound: O=C(CCl)N[C@@H]1C(O)O[C@H](CO)[C@@H](O)[C@@H]1O (some centres unmarked) [ManNClAc, N-Chloroacetyl Mannosamine]

Compound: CS(=O)(=O)N[C@@H]1C(O)O[C@H](CO)[C@@H](O)[C@@H]1O (some centres unmarked) [ManNMeSul, N-Methyanesulfonyl Mannosamine]
cell viability of CHP-134 cells [1, 10]: reduced
induction of apoptosis [1]: induce apoptosis
apoptosis and cell death in Jurkat cells [2]: inducing apoptosis and cell death
cell viability of Jurkat cells [2]: decrease cell viability
induction of apoptosis ([2]; Jurkat cells): induce apoptosis
cell viability of SK-MEL 28 cells (SK-MEL 28 melanoma cells [3]; [10]): reduced
induction of apoptosis (SK-MEL 28 melanoma cells [3]; SK-MEL 28 cells): induce apoptosis
cell viability of Jurkat cells [8]: reduced

Compound: CCC(=O)N[C@@H]1C(O)O[C@H](CO)[C@@H](O)[C@@H]1O (some centres unmarked) [N-propionyl mannosamine]
percentage of cells positive for SEAM 18 binding [4]: increases
percentage of cells positive for SEAM 18 binding [5]: increases
percentage of cells positive for SEAM 18 binding (SK-MEL 28 melanoma cells [6]): increases

Compound: CS(=O)(=O)N[C@H]1C(O)O[C@H](CO)[C@H](O)[C@@H]1O (some centres unmarked) [GalNMeSul, N-Methyanesulfonyl Galactosamine]
cell viability of CHP-134 cells [1, 10]: reduced
induction of apoptosis [1]: induce apoptosis
apoptosis and cell death in Jurkat cells [2]: inducing apoptosis and cell death
cell viability of Jurkat cells [2]: decrease cell viability
induction of apoptosis ([2]; Jurkat cells): induce apoptosis
cell viability of SK-MEL 28 cells (SK-MEL 28 melanoma cells [3]; [10]): reduced
induction of apoptosis (SK-MEL 28 melanoma cells [3]; SK-MEL 28 cells): induce apoptosis
cell viability of Jurkat cells [8]: reduced

Compound: Poly alpha (2→8) N-Acryl Neuraminic Acid [N-acryl PSA]
viability of Jurkat cells [2]: reduced viability
concentration required to induce cell death compared with N-acryl mannosamine ([2]; Jurkat cells, 24 hrs (FIG. 9)): higher

Source: US8999954B2, “Inhibitors of polysialic acid de-N-acetylase and methods for using the same” (Childern's Hospital & Research Center at Oakland, priority 2007, dated 2015)
